Test results as given in patent publication US8183292B2, “Chiral cyclic β-amino acids and their derivatives, pharmaceutical compositions containing them and the use of such compounds” (BioBlocks Magyarorszag Gyogyszerkemiai es Fejleszto Kft., priority 2006, dated 2012).

Assays:
P-glycoprotein = assay: Reversal of multidrug resistance: rhodamine 123 accumulation in human mdr1 transfected L5178 mouse T-cell lymphoma cells (flow cytometry); type: cell-based; conditions: for Vrel = effect related to Verapamil: Verapamil at 10 μg/ml; for R = ratio of fluorescence and activity / R (activity ratio, fluorescence): rhodamine 123; for Multidrug resistance reversing effect (in words): 4 and 40 μg/mL, at higher concentration multiple of fluorescence activity of Verapamil
Procedure: L5178 mouse T-cell lymphoma cells were transfected with pHa MDR1/A retrovirus, by the method as described by J. L. Weaver [J. L. Weaver, G. Szabó, P. S. Pine, M. M. Gottesmann, S. Goldenberg and A. Aszalos: The effect of ion channel blockers, immunosuppressive agents and other drugs on the activity of the multidrug transporter. Int. […] Mdr-1-expressing cell lines were selected by culturing the transfected cells with 60 ng/mL of colchicine to maintain the expression of the MDR phenotype. L5178 (parent) mouse T-cell lymphoma cells and the human mdr1 transfected subline were cultured in McCoy's 5A medium supplemented with 10% by mass of heath-inactivated horce serum, L-glutamine and antibiotics. Both cell lines were cultured at 37° C. The mouse lymphoma cell line was maintained in a 5% CO2 atmosphere.
The assays were carried out by the method as described by J. Molnár et al. [J. Molnár, I. Mucsi, J. Nacsa, A. Hevér, N. Gyémánt, K. Ugocsai, P. Hegyes, S. Kiessig, D. Gaal, H. Lage and A. Varga: New silicon compounds as resistance modifiers against multidrug-resistant cells. […] The cell density was set to a value of 2×10^6/mL, then the cells were resuspended in a serum-free McCoy's 5A medium and divided in aliquots of 0.5 mL in Eppendorf centrifuge tubes. The tested compounds were added in different concentrations to different volumes (2.0-20.0 μL) of 1.0-10.0 mg/mL stock solutions and the samples were incubated for 10 minutes at room temperature. […] The fluorescence of the cell population was measured with a Beckton Dickinson FACScan flow cytometer. […] The percentage value of the mean fluorescence intensity was calculated for the treated MDR and for the parental cell lines as compared with the values obtained with the untreated cells. The activity ratio (R) was calculated on the basis of the measured fluorescence values by the following equation: […]

[1] = system: MRC-5 human fibroblast cell lines; assay: Cytotoxicity on MRC-5 human fibroblast cell lines (Alamar Blue/resazurine, 24 h); type: cell-based; conditions: MRC-5 cells, 24 hours incubation, 1% DMSO
Procedure: The toxic effect of the compounds was measured on MRC-5 human fibroblast cell lines in accordance with the method that has been described in the article published by Molnár et al. [L. Molnár, G. M. Keserü, Á. Papp, Z. Lörincz, G. Ambrus és F. Darvas.: A neural network based classification scheme for cytotoxicity predictions: Validation on 30,000 compounds, Bioorg. Med. Chem. Lett. 16(4), 1037-9 (2006)]. The cells were incubated for a cell cycle (24 hours) with solutions of various concentrations prepared from the compounds, in the presence of 1% of DMSO. 3 parallel measurements were carried out with 6 different concentrations. The ratio of the viable cells was determined by reducing the Alamaar Blue (resazurine) reagent that was followed fluorimetrically. The measured materials were not toxic on the given cell line in a concentration of 128 μmol after incubation for one day.
In the following Table 1 the cytotoxicity of some compounds according to the invention is given.

| Structure (SMILES) | melting point [°C] | Vrel = effect related to Verapamil (P-glycoprotein; Table 2, 4 μg/ml) | R (activity ratio, fluorescence) (P-glycoprotein; Table 2, 4 μg/ml) | Vrel = effect related to Verapamil (P-glycoprotein; Table 2, 40 μg/ml) | R (activity ratio, fluorescence) (P-glycoprotein; Table 2, 40 μg/ml) | Survival (%) [c = 128 μM] [1] [%] | further results |
| --- | --- | --- | --- | --- | --- | --- | --- |
| CC1(C)[C@H]2C[C@@H]3C(=O)N[C@@H]3[C@@H]1C2 [Compound 10, (1R,2R,5S,7R)-8,8-Dimethyl-3-Azatricyclo[5.1.1.0^2,5]Nonan-4-One] | 68 to 72 |  |  |  |  |  |  |
| CC(C)(C)OC(=O)N1C(=O)[C@H]2C[C@H]3C[C@@H]([C@H]21)C3(C)C [Compound 11, (1R ,2R,5S,7R)-N-tert-Butoxycarbonyl-8,8-Dimethyl-3-Azatricyclo[5.1.1.0^2,5]-Nonan-4-One] | 64 to 66 |  |  |  |  |  |  |
| CNC(=O)[C@H]1[C@@H](NC(=O)OC(C)(C)C)C[C@H]2C[C@H]1C2(C)C [Compound 12, tert-Butyl (1R,2R,3S,5R)-(2-Methylaminocarbonyl-6,6-Dimethylbicyclo[3.1.1]-Hept-3-yl)Carbamate] | 104 to 105 |  |  |  |  |  |  |
| CC1(C)[C@H]2C[C@H](C(=O)O)[C@H](N)[C@@H]1C2 [Compound 13, (1R,2R,3S,5R)-2-Amino-6,6-Dimethylbicyclo[3.1.1]Heptan-3-Carboxylic Acid] | 270 |  |  |  |  |  |  |
| CCOC(=O)[C@H](Cc1ccccc1)NC(=O)[C@H]1C[C@H]2C[C@@H]([C@H]1NC(=O)OC(C)(C)C)C2(C)C [Compound 17] |  |  |  |  |  |  | Vrel = effect related to Verapamil (P-glycoprotein; Table 3, 4 μg/ml): 1.58; R = ratio of fluorescence and activity (P-glycoprotein; Table 3, 4 μg/ml): 23.1; Vrel = effect related to Verapamil (P-glycoprotein; Table 3, 40 μg/ml): 6.45; R = ratio of fluorescence and activity (P-glycoprotein; Table 3, 40 μg/ml): 94.24 |
| COC(=O)N(C1c2ccccc2-c2ccccc21)[C@H]1[C@@H](C(=O)O)C[C@H]2C[C@@H]1C2(C)C [Compound 18, (1R,2R,3S,5R)-2-(9H-Fluoren-9-yl-Methoxycarbonylamino)-6,6-Dimethylbicyclo[3.1.1]Heptan-3-Carboxylic Acid] | 160 to 162 |  |  |  |  |  |  |
| CC1(C)[C@H]2C[C@@H](C(=O)O)[C@H](N)[C@@H]1C2 [Compound 29, (1R,2R,3R,5R)-2-Amino-6,6-Dimethylbicyclo[3.1.1]Heptan-3-Carboxylic Acid] | 250 to 252 |  |  |  |  |  |  |
| COC(=O)N(C1c2ccccc2-c2ccccc21)[C@H]1[C@H](C(=O)O)C[C@H]2C[C@@H]1C2(C)C [Compound 30, (1R,2R,3R,5R)-2-(9H-Fluoren-9-yl-Methoxycarbonylamino)-6,6-Dimethylbicyclo[3.1.1]Heptan-3-Carboxylic Acid] | 155 to 157 |  |  |  |  |  |  |
| CCOC(=O)[C@H](Cc1ccccc1)NC(=O)[C@@H]1C[C@@H]2C[C@H]([C@@H]1NC(=O)OC(C)(C)C)C2(C)C [Compound 38] |  | 0.79 | 2.33 | 6.73 | 19.92 | 125.3 |  |
| CC1(C)[C@@H]2C[C@H](C(=O)O)[C@@H](NC(=O)OCC3c4ccccc4-c4ccccc43)[C@H]1C2 [Compound 41, (1S,2S,3S,5S)-2-(9H-Fluoren-9-yl-Methoxycarbonylamino)-6,6-Dimethylbicyclo[3.1.1]Heptan-3-Carboxylic Acid] |  |  |  |  |  |  | Vrel = effect related to Verapamil (P-glycoprotein; Table 3, 4 μg/ml): 0.07; R = ratio of fluorescence and activity (P-glycoprotein; Table 3, 4 μg/ml): 0.86; Vrel = effect related to Verapamil (P-glycoprotein; Table 3, 40 μg/ml): 0.11; R = ratio of fluorescence and activity (P-glycoprotein; Table 3, 40 μg/ml): 1.25 |
| CCOC(=O)[C@H]1C[C@H]2C[C@@H]([C@H]1NC(=S)Nc1cccc(OC)c1)C2(C)C [Compound 44, (1R,2R,3S,5R)-1-(3-Ethoxycarbonyl-6,6-Dimethylbicyclo[3.1.1]Heptan-2-yl)-3-(3-Methoxyphenyl)-Thiourea] | 132 to 135 | 0.41 | 2.02 | 4.47 | 22 | 128.1 | Multidrug resistance reversing effect (in words) (P-glycoprotein): significant dose-dependent effect |
| CCOC(=O)[C@H]1C[C@H]2C[C@@H]([C@H]1NC(=O)Nc1ccc(Cl)cc1)C2(C)C [Compound 45, (1R,2R,3S,5R)-1-(3-Ethoxycarbonyl-6,6-Dimethylbicyclo[3.1.1]Heptan-2-yl) -3-(4-Chlorophenyl)-Urea] | 170 to 171 | 1.52 | 7.46 | 2.21 | 10.89 | 176.7 |  |
| CCOC(=O)[C@H]1C[C@H]2C[C@@H]([C@H]1NC(=S)NCCc1ccc(OC)c(OC)c1)C2(C)C [Compound 46, (1R,2R,3S,5R)-1-(3-Ethoxycarbonyl-6,6-Dimethylbicyclo[3.1.1]Heptan-2-yl) -3-(3,4-Dimethoxyphenylethyl)-Thiourea] | 125 to 126 | 0.82 | 4.02 | 4.46 | 21.92 | 182.2 | Multidrug resistance reversing effect (in words) (P-glycoprotein): significant dose-dependent effect |
| CCOC(=O)[C@H]1C[C@H]2C[C@@H]([C@H]1N(Cc1ccccc1)C(=O)Nc1ccc(Cl)cc1)C2(C)C [Compound 48, (1R,2R,3S,5R)-1-Benzyl-1-(3-Ethoxycarbonyl-6,6-Dimethylbicyclo[3.1.1]Heptan-2-yl)-3-(4-Chlorophenyl)-Urea] | 202 to 205 |  |  |  |  |  |  |
| CCOC(=O)[C@@H]1C[C@H]2C[C@@H]([C@H]1NC(=S)NCCc1ccc(OC)c(OC)c1)C2(C)C [Compound 51, (1R,2R,3R,5R)-1-(3-Ethoxycarbonyl-6,6-Dimethylbicyclo[3.1.1]Heptan-2-yl)-3-(3,4-Dimethoxyphenyl-Ethyl)-Thiourea] |  | 2.70 | 13.29 | 9.96 | 49.02 |  | Multidrug resistance reversing effect (in words) (P-glycoprotein): significant dose-dependent effect |
| CCOC(=O)[C@@H]1C[C@@H]2C[C@H]([C@@H]1NC(=S)Nc1cccc(OC)c1)C2(C)C [Compound 54, (1S,2S,3R,5S)-1-(3-Ethoxycarbonyl-6,6-Dimethylbicyclo[3.1.1]Heptan-2-yl) -3-(3-Methoxyphenyl)-Thiourea] |  | 0.48 | 2.37 | 5.36 | 26.35 |  |  |
| CCOC(=O)[C@H]1C[C@@H]2C[C@H]([C@@H]1NC(=S)Nc1cccc(OC)c1)C2(C)C [Compound 55, (1S,2S,3S,5S)-1-(3-Ethoxycarbonyl-6,6-Dimethylbicyclo[3.1.1]Heptan-2-yl)-3-(3-Methoxyphenyl)-Thiourea] |  | 0.62 | 3.07 | 2.44 | 11.99 | 214.1 |  |
| CCOC(=O)[C@H]1C[C@@H]2C[C@H]([C@@H]1NC(=O)Nc1ccc(Cl)cc1)C2(C)C [Compound 56, (1S,2S,3S,5S)-1-(3-Ethoxycarbonyl-6,6-Dimethylbicyclo[3.1.1]Heptan-2-yl)-3-(4-Chlorophenyl)-Urea] |  |  |  |  |  | 116.8 | Multidrug resistance reversing effect (in words) (P-glycoprotein): significant dose-dependent effect; Vrel = effect related to Verapamil (P-glycoprotein; Table 3, 4 μg/ml): 0.14; R = ratio of fluorescence and activity (P-glycoprotein; Table 3, 4 μg/ml): 1.57; Vrel = effect related to Verapamil (P-glycoprotein; Table 3, 40 μg/ml): 3.43; R = ratio of fluorescence and activity (P-glycoprotein; Table 3, 40 μg/ml): 39.39 |
